Tests used:
human ACC1 = human ACC1 (Homo sapiens, UniProt Q13085); assay: Acetyl CoA carboxylase (ACC) activity inhibition test, human ACC1; assay type: biochemical; settings: 1 μmol/liter compound; [14C] bicarbonate fixation, 37° C., 40 minutes; read-out: Inhibition (%) by 1 μmol/liter Chemical, human ACC1
Procedure: (§1) A. Pharmacological Test Example (Acetyl CoA Carboxylase (ACC) Activity Inhibition Test)
(§2) A test compound is dissolved in dimethyl sulfoxide (DMSO) to a concentration of 10 mM and then diluted with DMSO to give a 100-fold concentrated solution of the compound compared with target assay concentration. The ACC enzyme activity inhibition test is carried out according to a modification of Thampy & Wakil's method (J. Biol. Chem., Vol. 260, pp. 6318-6323 (1985)). Concretely, 0.8 μl of the diluted test compound is added to each well of 96-well assay plate (Perkin Elmer Opti Plate), then 40 μl of a substrate solution (50 mM Hepes sodium (pH 7.5), 2 mM DTT, 10 mM ATP, 500 μM acetyl CoA, 0.17 mM NaH[^14C]O3 (58 mCi/mmol, by Amersham), 8 mM NaHCO3) is added to each well, and 40 μL of an enzyme solution ([…] human ACC1 or human ACC2, 50 mM Hepes sodium (pH 7.5), 2 mM DTT, 40 mM MgCl2, 40 mM tripotassium citrate 1 mg/ml fetal bovine serum albumin) is added thereto. Then, the upper side of the plate is sealed up, and the plate is incubated with gently stirring at 37° C. for 40 minutes. Next, 20 μl of 1 N HCl is added to each well to stop the enzyme reaction, and the assay plate is stirred overnight to remove the unreacted NaH[^14C]O3. Next, 100 μl of a scintillator (Perkin Elmer's Microscinti 40) is added to each well and the plate is stirred, then the radioactivity of the fixed [^14C] is counted using a microplate scintillation counter (Perkin Elmer's Topcount), the radioactivity of which represents the enzyme activity in each well. The human ACC1 and human ACC2 enzyme-inhibition activities of the test compounds are calculated, based on the radioactivity of the well added by DMSO without test compound as a control.

human ACC2 = human ACC2 (Homo sapiens, UniProt O00763); assay: Acetyl CoA carboxylase (ACC) activity inhibition test, human ACC2; assay type: biochemical; settings: 1 μmol/liter compound; [14C] bicarbonate fixation, 37° C., 40 minutes; read-out: Inhibition (%) by 1 μmol/liter Chemical, human ACC2
human ACC2, sequence (O00763 whole entry): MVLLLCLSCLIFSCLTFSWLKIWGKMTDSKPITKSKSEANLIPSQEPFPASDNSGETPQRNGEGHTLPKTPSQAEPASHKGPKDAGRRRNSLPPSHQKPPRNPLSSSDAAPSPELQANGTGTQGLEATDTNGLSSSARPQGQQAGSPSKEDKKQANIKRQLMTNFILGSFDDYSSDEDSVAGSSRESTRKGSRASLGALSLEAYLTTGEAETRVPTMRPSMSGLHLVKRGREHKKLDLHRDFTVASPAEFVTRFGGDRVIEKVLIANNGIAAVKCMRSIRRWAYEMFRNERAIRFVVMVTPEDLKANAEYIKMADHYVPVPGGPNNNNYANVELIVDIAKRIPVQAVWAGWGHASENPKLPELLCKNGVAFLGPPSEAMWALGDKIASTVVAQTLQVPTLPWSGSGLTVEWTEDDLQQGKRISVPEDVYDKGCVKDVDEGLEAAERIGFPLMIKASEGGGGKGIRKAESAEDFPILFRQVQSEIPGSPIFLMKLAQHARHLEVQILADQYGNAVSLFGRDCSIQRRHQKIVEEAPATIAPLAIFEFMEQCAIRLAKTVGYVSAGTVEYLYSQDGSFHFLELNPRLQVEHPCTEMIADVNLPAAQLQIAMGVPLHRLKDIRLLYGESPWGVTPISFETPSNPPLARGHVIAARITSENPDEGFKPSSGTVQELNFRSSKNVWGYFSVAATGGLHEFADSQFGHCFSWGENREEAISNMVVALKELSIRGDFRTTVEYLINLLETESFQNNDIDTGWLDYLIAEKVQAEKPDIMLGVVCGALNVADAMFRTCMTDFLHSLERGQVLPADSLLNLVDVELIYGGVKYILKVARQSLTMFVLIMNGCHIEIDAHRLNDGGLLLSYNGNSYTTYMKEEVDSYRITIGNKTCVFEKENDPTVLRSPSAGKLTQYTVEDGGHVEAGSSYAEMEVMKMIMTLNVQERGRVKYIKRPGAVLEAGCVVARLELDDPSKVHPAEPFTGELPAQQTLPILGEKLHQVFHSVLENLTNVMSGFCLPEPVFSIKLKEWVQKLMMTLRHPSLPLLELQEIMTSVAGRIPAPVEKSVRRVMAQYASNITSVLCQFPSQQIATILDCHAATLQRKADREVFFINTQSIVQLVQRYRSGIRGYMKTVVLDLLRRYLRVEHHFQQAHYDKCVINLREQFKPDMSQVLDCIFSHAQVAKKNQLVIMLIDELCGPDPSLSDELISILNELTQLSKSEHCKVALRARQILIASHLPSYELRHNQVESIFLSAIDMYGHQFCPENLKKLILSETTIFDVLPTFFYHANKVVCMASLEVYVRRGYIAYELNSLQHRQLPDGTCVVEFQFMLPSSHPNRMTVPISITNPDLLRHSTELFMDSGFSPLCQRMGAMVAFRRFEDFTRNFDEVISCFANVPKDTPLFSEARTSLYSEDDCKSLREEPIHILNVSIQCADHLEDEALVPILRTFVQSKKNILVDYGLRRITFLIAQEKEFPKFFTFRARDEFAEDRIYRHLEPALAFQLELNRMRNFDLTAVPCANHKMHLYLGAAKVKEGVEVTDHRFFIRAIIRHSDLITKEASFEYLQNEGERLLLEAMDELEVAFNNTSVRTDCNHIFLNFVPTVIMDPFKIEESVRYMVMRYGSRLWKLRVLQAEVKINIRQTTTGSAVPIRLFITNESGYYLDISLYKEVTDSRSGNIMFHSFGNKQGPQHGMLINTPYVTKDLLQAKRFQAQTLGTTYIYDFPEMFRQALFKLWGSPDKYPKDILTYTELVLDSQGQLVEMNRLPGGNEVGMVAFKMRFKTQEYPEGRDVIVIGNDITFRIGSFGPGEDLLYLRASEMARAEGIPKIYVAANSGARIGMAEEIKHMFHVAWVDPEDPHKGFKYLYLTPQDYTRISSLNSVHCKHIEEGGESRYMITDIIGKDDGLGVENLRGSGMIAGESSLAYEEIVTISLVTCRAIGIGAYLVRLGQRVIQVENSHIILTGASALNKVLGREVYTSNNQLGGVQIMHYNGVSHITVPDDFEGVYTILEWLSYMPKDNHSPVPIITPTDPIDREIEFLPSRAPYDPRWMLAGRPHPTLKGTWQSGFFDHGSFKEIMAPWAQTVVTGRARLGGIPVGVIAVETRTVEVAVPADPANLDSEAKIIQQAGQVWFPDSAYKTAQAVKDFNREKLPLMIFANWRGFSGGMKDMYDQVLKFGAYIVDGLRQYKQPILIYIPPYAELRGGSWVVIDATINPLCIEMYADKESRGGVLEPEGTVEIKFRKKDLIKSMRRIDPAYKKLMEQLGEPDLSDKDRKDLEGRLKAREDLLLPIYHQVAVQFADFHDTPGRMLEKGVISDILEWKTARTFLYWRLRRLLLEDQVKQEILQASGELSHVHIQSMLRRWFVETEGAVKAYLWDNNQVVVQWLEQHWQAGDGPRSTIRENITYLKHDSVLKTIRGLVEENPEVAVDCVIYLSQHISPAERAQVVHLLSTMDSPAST
Procedure: as §1, §2

Row | Structure (SMILES) | inhibition at 1 µM (human ACC1) | inhibition at 1 µM (human ACC2)
1 | COc1cc(C(=O)N2CCC3(CC2)CC(=O)c2cc(-c4nnn[nH]4)ccc2O3)cc(OC)c1-c1ccccc1 [Example 5] | 94% | 97%
2 | CCOc1cc(C(=O)N2CCC3(CC2)CC(=O)c2cc(-c4nnn[nH]4)ccc2O3)cc(OCC)c1-c1cnn(C)c1 [Example 12, 1′-{[3,5-Diethoxy-4-(1-methyl-1H-pyrazol-4-yl)phenyl]carbonyl}-6-(tetrazol-5-yl)spiro[chroman-2,4′-piperidin]-4-one] | 100% | 99%
3 | CCOc1cc(C(=O)N2CCC3(CC2)CC(=O)c2cc(-c4cncc(C(=O)O)c4)ccc2O3)cc(OCC)c1-c1cnn(C)c1 [Example 25, 5-(1′-{[3,5-Diethoxy-4-(1-methyl-1H-pyrazol-4-yl)phenyl]carbonyl}-4-oxospiro[chroman-2,4′-piperidin]-6-yl)pyridine-3-carboxylic acid] | 100% | 99%
4 | CCOc1cc(C(=O)N2CCC3(CC2)CC(=O)c2cc(-c4nnn[nH]4)ccc2O3)cc(OC)c1-c1cnn(C)c1 [Example 29, 1′-{[3-Ethoxy-5-methoxy-4-(1-methyl-1H-pyrazol-4-yl)phenyl]carbonyl}-6-(tetrazol-5-yl)spiro[chroman-2,4′-piperidin]-4-one] | 99% | 99%
5 | CCOc1cc(C(=O)N2CCC3(CC2)CC(=O)c2cc(-c4ccnc(C(=O)O)c4)ccc2O3)cc(OCC)c1-c1cnn(C)c1 [Example 37, 4-(1′-{[3,5-Diethoxy-4-(1-methyl-1H-pyrazol-4-yl)phenyl]carbonyl}-4-oxospiro[chroman-2,4′-piperidin]-6-yl)pyridine-2-carboxylic acid] | 100% | 99%
6 | Cn1cc(-c2ccc3c(c2)C(=O)CC2(CCN(C(=O)c4cc(-c5nnn[nH]5)c5ccn(C6CC6)c5c4)CC2)O3)cn1 [Example 42, 1′-{[1-Cyclopropyl-4-(tetrazol-5-yl)-1H-indol-6-yl]carbonyl}-6-(1-methyl-1H-pyrazol-4-yl)spiro[chroman-2,4′-piperidin]-4-one] | 98% | 99%
7 | Cc1nn(-c2ccccn2)c2sc(C(=O)N3CCC4(CC3)CC(=O)c3cc(-c5nnn[nH]5)ccc3O4)cc12 [Example 51, 1′-[(3-Methyl-1-pyridin-2-yl-1H-thieno[2,3-c]pyrazol-5-yl)carbonyl]-6-(tetrazol-5-yl)spiro[chroman-2,4′-piperidin]-4-one] | 98% | 89%
8 | Cn1nc(-c2ccccc2)c2ccc(C(=O)N3CCC4(CC3)CC(=O)c3cc(-c5nnn[nH]5)ccc3O4)cc21 [Example 56, 1′-[(1-Methyl-3-phenyl-1H-indazol-6-yl)carbonyl]-6-(tetrazol-5-yl)spiro[chroman-2,4′-piperidin]-4-one] | 99% | 98%
9 | CCOc1cc(C(=O)N2CCC3(CC2)CC(=O)c2cc(-c4nnn(COC(=O)C(C)(C)C)n4)ccc2O3)cc(OC)c1-c1cnn(C)c1 [Example 63, (5-{1′-[3-ethoxy-5-methoxy-4-(1-methyl-1H-pyrazol-4-yl)benzoyl]-4-oxospiro[chroman-2,4′-piperidin]-6-yl}-2H-tetrazol-2-yl)methylpivalate] | 93% | 97%
10 | COc1cc(C(=O)N2CCC3(CC2)CC(=O)c2cc(-c4ccc(C(N)=O)cn4)ccc2O3)cc(OC)c1-c1cnn(C)c1 [Example 68, 6-{1′-[3,5-dimethoxy-4-(1-methyl-1H-pyrazol-4-yl)benzoyl]-4-oxospiro[chroman-2,4′-piperidin]-6-yl}nicotinamide] | 99% | 99%
11 | CCOc1cc(C(=O)N2CCC3(CC2)CC(=O)c2cc(-c4ccc(C(=O)O)cn4)ccc2O3)cc(OCC)c1-c1cnn(C)c1 [Example 71, Sodium 6-{1′-[3,5-diethoxy-4-(1-methyl-1H-pyrazol-4-yl)benzoyl]-4-oxospiro[chroman-2,4′-piperidin]-6-yl}nicotinate] | 99% | 99%
12 | CCOc1cc(C(=O)N2CCC3(CC2)CC(=O)c2cc(-c4ccc(C(N)=O)cn4)ccc2O3)cc(OC)c1-c1cnn(C)c1 [Example 77, 6-{1′-[3-ethoxy-5-methoxy-4-(1-methyl-1H-pyrazol-4-yl)benzoyl]-4-oxospiro[chroman-2,4′-piperidin]-6-yl}nicotinamide] | 99% | 99%
13 | CCOc1cc(C(=O)N2CCC3(CC2)CC(=O)c2cc(-c4cnn(C)c4)ccc2O3)cc(OC)c1-c1cnn(C)c1 [Example 79, 1′-[3-Ethoxy-5-methoxy-4-(1-methyl-1H-pyrazol-4-yl)benzoyl]-6-(1-methyl-1H-pyrazol-4-yl)spiro[chroman-2,4′-piperidin]4-one] | 99% | 99%

Reference: US8138197B2, “Spirochromanon derivatives” (MSD K.K., priority 2007, dated 2012)
